One data set deals with DLBCL and HCC. Description: AZD9150 Phase I clinical trials. The data set is classed as in vivo, human.
The subject of a further data set is mouse STAT3 sequences. Description: Cross reaction of human STAT3 ASO with mouse STAT3 sequences. The note with it: human STAT3 targeted ASO.
Another data set deals with immune-related genes. Description: Nanostring gene expression profiling of patient tumor biopsies, Phase I trial (Example 8). Conditions: DLBCL patients; 2 or 3 mg/kg; 4-6 weeks on treatment vs baseline; five of six signature genes. The data set is classed as in vivo, human. The procedure: Tumor biopsies were collected in a Phase I clinical trial from cancer patients treated with AZD9150 before treatment started and at 4-6 weeks after treatment commenced. Patients received three loading doses 2 or 3 mg/kg AZD9150 during the first week on days 1, 3, and 5, followed by weekly doses thereafter. Nine of the sets of biopsies were from patients with Diffuse Large B Cell Lymphoma, two were from patients with follicular lymphoma, and one was from a patient with non-small cell lung cancer. The biopsies were formalin fixed and paraffin embedded and sectioned. RNA was isolated from six five-micron sections of each biopsy and subjected to Nanostring gene expression profiling analysis using the nCounter Human Immunology Codeset representing 594 immune-related genes. Raw data were calibrated according to Veldman-Jones et al., (Cancer Research. 75:2587, 2015) and analyzed for changes on-treatment compared to the baseline pretreatment samples. A heatmap representing unsupervised clustering of the largest and most statistically relevant gene expression changes in DLBCL was generated.

Another data set concerns CT-26 tumors. Nature of the data set: CT-26 tumor volume with control ASO and isotype control antibody (Example 4). The data set is classed as in vivo, mouse. Conditions: FIG. 4. The procedure:
(§1) The antitumor efficacy of mouse STAT3 ASO in combination with antibodies targeting PD-L1 or CTLA-4, or with an OX40 ligand fusion protein, were evaluated in three mouse syngeneic tumor models: CT-26 (colorectal), 4T1 (mammary) and A20 (lymphoma). Details of tumor implantation and treatment schedules for each model are in the table below. The QD×5/wk dosing schedule for the STAT3 ASO (same ASO as used in Example 1) was 5 days of treatment followed by 2 days without treatment. The 2×/wk dosing schedule for antibodies was 2 treatments/wk evenly spaced over the course of the week (e.g., Monday and Thursday, or Tuesday and Friday, etc.). ASO treatments began before randomization into treatment groups. […] There were ten mice in each treatment group.
(§2) The mouse STAT3 ASO was formulated in PBS and dosed subcutaneously. The Abs and FP were also formulated in PBS, and dosed introperitoneally. During the course of the experiment, tumor length and width were measured by caliper, and tumor volume calculated using the formula volume=(length×width^2)*π/6.
The CT-26 experiment in Example 3 included treatment with a control ASO (AZD9150) and an isotype control antibody (rat IgG2b, product LTF-2, purchased from BioXCell, West Lebanon NH) as negative controls.

The subject of a further data set is advanced melanoma. The note with it: phase III; cited from earlier work.
Another data set relates to xenograft model. The note with it: via a T-cell dependent mechanism; cited from earlier work.
Data set [1] concerns CT-26 (colorectal), 4T1 (mammary) and A20 (lymphoma). Nature of the data set: Three mouse syngeneic tumor models, tumor volume (Example 3). The data set is classed as in vivo. Conditions: at the doses and schedules of Example 3; FIG. 3. The procedure: as §1, §2

The text below walks through data of US20230374503A1, “COMBINATION” (AstraZeneca AB, priority 2014, published 2023).

In the oligonucleotide strings, read from the 5' end, every base follows the letter of its sugar. An asterisk marks phosphorothioate; unmarked linkages are phosphodiester. Other units and linkages are bracketed, terminal groups are in braces. A string of capitals states the bases alone. k = constrained ethyl (cEt); [5mC] = 5-methylcytosine; d = 2'-deoxy (DNA)

On to “AZD9150: human STAT3 antisense 3-10-3 cEt gapmer, phosphorothioate, 5-methylcytosines, CTATTTGGATGTCAGC (SEQ ID NO: 2) (antisense k[5mC]*kT*kA*dT*dT*dT*dG*dG*dA*dT*dG*dT*d[5mC]*kA*kG*k[5mC])”, for which the clinical response result in the data set with DLBCL and HCC is “clinical responses in DLBCL and HCC at tolerated doses”. Also, the “cross reaction with mouse STAT3 sequences” value in the data set with mouse STAT3 sequences is “does not cross react with mouse STAT3 sequences”. In addition, in the data set on immune-related genes, the “upregulated "interferon gamma gene signature" genes in tumor biopsies” value is “STAT1, IFN-gamma, CXCL9, CXCL10, and IDO”. For the same molecule, the “enhancement of the activity of the anti-PD-L1 antibody” value with CT-26 tumors (AZD9150 plus PD-L1 Ab, CT-26 tumors) was “no enhancement of the activity of the anti-PD-L1 antibody”. Further, the “antitumor activity of negative controls” value with CT-26 tumors (mice bearing CT-26 tumors) is “No Antitumor Activity”.

For the molecule “tremelimumab: human IgG2 monoclonal antibody highly selective for CTLA-4”, the “overall survival compared to standard of care (temozolomide or dacarbazine)” value in the data set on advanced melanoma is recorded as “did not significantly increase the overall survival”.

B1: MEDI4736: human monoclonal antibody directed against human PD-L1 (antibody, V domains shown)
VH: EVQLVESGGGLVQPGGSLRLSCAASGFTFSRYWMSWVRQAPGKGLEWVANIKQDGSEKYYVDSVKGRFTISRDNAKNSLYLQMNSLRAEDTAVYYCAREGGWFGELAFDYWGQGTLVTVSS
VL: EIVLTQSPGTLSLSPGERATLSCRASQRVSSSYLAWYQQKPGQAPRLLIYDASSRATGIPDRFSGSGSGTDFTLTISRLEPEDFAVYYCQQYGSLPWTFGQGTKVEIK
modifications: MEDI4736 VH; Sequence 72 from PCT/US2010/058007; MEDI4736 VL; Sequence 77 from PCT/US2010/058007
notes: human monoclonal antibody directed against human PD-L1
With B1, the “tumor growth in a xenograft model” value in the data set with xenograft model is recorded as “inhibits tumor growth”.

B2: OX40 ligand FP: Mouse OX40 ligand fusion protein generated in house, SEQ ID NO: 37 and 38 (protein)
chain: VPRDCGCKPCICTVPEVSSVFIFPPKPKDVLTITLTPKVTCVVVDISKDDPEVQFSWFVDDVEVHTAQTQPREEQFNSTFRSVSELPIMHQDWLNGKEFKCRVNSAAFPAPIEKTISKTKGRPKAPQVYTIPPPKEQMAKDKVSLTCMITDFFPEDITVEWQWNGQPAENYKNTQPIMDTDGSYFVYSKLNVQKSNWEAGNTFTCSVLHEGLHNHHTEKSLSHSPGKRLDQDKIEALSNKVQQLERSIGLKDLAMADLEQKVSELEVSTSSPAKDPPIQRLRGAVTRCEDGQLFISSYKNEYQTMEVQNNSVVIKCDGLYIIYLKGSFFQEVKIDLHFREDHNPISIPMLNDGRRIVFTVVASLAFKDKVYLTVNAPDTLCEHLQINDGELIVVQLTPGYCAPEGSYHSTVNQVPL
modifications: misc_feature 1..1248 DNA Sequence of mouse construct mIgG1mTF2mOX40L
On to B2, for which the “single agent antitumor activity” value in data set [1] was “weak to modest single agent antitumor activity”.
